Assay results published in patent US7282203B2, “Use of NOTCH pathway interfering agents for treatment of plasma cell disorders” (Health Research, Inc., priority 2003, dated 2007).

Experiments:
OPM2 MM cells = test: MTT assay, percent of living OPM2 MM cells cultured on fibroblast cells; assay type: cell-based; details: for IC50: Homo sapiens, OPM-2
Protocol: FIG. 11A-D. IC50 for OPM2 cells (MM) incubated with doxorubicin (DOX) alone or in the presence of an anti-NOTCH or anti-JAG2 antibody. OPM2 (MM) cells were cultured on fibroblasts (MRC5) In FIG. 11 A, IC50 data is shown for cells incubated with different concentrations of DOX. In FIG. 11B, IC50 data is shown for OPM2 cells on fibroblast with […] DOX, an isotype antibody or an anti-NOTCH-EC antibody. In FIG. 11C, data is shown for the effect of the anti-NOTCH antibody alone, without DOX. In FIG. 11D, IC50 values are shown for OMP2 cells incubated alone, in the presence of DOX or in the presence of DOX with an anti-JAG2 antibody (M8).
To illustrate this embodiment, the anti-NOTCH-EC antibody or the anti-JAG2 antibody was used in combination with doxorubicin (DOX). The OPM2 MM cells were cultured for 48 hours on fibroblast cells with different concentrations of DOX. […] However, when increasing concentrations of the anti-JAG2 were added, the percent of living cells was seen to decrease.

multiple myeloma = details: cited from earlier work
RPMI8226 cell line = test: Cytokine secretion on incubation of RPMI8226 cell line with JAG2 binding peptide; assay type: cell-based; details: RPMI8226 MM cell line
Protocol: (§1) FIGS. 8A-C. Induction of the secretion of IL-6 (FIG. 8A); VEGF (FIG. 8B) and IGF-1 (FIG. 8C) by incubation of the MRC5 and RPMI8226 cell lines with a JAG2 binding peptide CDENYYSATCNKFCRPRND (SEQ ID NO:1) at the indicated concentrations.
(§2) In order to ascertain the involvement of JAG2 in the induction of the secretion of IL-6, VEGF and IGF-1, we incubated the MRC5 cell line with different concentrations of JAG2 peptide. This peptide corresponds to the binding region of JAG2 that activates NOTCH upon interaction. We also incubated the RPMI8226 cell line with this same peptide.

MRC5 cell line = test: Cytokine secretion on incubation of MRC5 cell line with JAG2 binding peptide; assay type: cell-based; details: MRC5, different concentrations of peptide
Protocol: as §1, §2

## COc1cccc2c1C(=O)c1c(O)c3c(c(O)c1C2=O)C[C@@](O)(C(=O)CO)C[C@@H]3O[C@H]1C[C@H](N)[C@H](O)[C@H](C)O1 [DOX, doxorubicin]
OPM2 MM cells; DOX alone (FIG. 11D)
  percent of living cells: no effect
OPM2 MM cells; DOX alone, 48 hours on fibroblast cells
  IC50: ~1000 nM
OPM2 MM cells; DOX in the presence of 40 μg (27 μg/ml) anti-NOTCH EC antibody
  IC50: 100 nM
OPM2 MM cells; with 40 μg anti-NOTCH EC antibody versus DOX alone
  reduction of DOX concentration at IC50: ~10 times

## N[C@@H](Cc1ccc(N(CCCl)CCCl)cc1)C(=O)O [Melphalan]
Multiple myeloma; conventional chemotherapy, mainly Melphalan
  patients reaching complete remission (CR): 14%

## CC(C)C[C@H](NC(=O)[C@H](Cc1ccccc1)NC(=O)c1cnccn1)B(O)O [PS341]
Multiple myeloma; available trials
  CR/PR: 47%
  patients showing a >75% reduction of paraprotein: 30%

## NH2-CDENYYSATCNKFCRPRND-OH (H-CDENYYSATCNKFCRPRND-OH; cysteine pairing not given here) [JAG2 binding peptide]
RPMI8226 cell line
  secretion of IGF-1: no stimulation
  secretion of IL-6: no stimulation
  secretion of VEGF: no stimulation
MRC5 cell line
  secretion of IGF-1: activated
  secretion of IL-6: activated
  secretion of VEGF: activated
